Patent US12083181B2, “Bi-functional molecules to degrade circulating proteins” (Yale University, priority 2018, dated 2024)

How the values were obtained:
rhuMIF [1] = target: T1, rhuMIF (Homo sapiens, UniProt P14174); test: Depletion of human MIF from supernatant of cultured HepG2 cells, sandwich ELISA; assay type: cell-based; settings: 100 nM huMIF, after 24 hours
T1 sequence (P14174 2-115 limits assumed): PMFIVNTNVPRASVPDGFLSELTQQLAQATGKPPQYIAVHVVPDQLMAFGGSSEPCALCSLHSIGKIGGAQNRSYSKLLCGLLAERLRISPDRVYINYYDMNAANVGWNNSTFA
Experimental: In an experiment the results of which are presented in FIG. 3, bifunctional molecules were able to deplete human MIF from the supernatant of culture HepG2 cells. Briefly, human MIF (100 nM) was added to cell culture media in the presence of negative control MIF inhibitor 3w as well as bifunctional molecules MIF-NVS-PEGn-GN3, MIF-GN3, MIF-PEGn-Gn3, MIF-AcF3-1, MIF-AcF3-2, and MIF-AcF3-3. All molecules utilized a known MIF-binding ligand. Experiments were performed in 96 well plates (approximate surface area 0.3 cm^2). HepG2 cells were grown to 90% confluency in RPMI media, then washed with PBS (2×) and treated with serum-free media (optimem+0.1% BSA, +Pen/Strep) containing 100 nM huMIF (Cayman Chemical) and compounds (when applicable). Compounds were diluted from 1 mM stock solutions in DMSO. After 24 hours, a sample of the supernatant (2 uL) was collected, diluted 1:100, and analyzed for MIF content by sandwich ELISA (and incubated for 24 hours in the presence or absence of compound). Remaining MIF levels were determined by sandwich ELISA (biolegend monoclonal anti-MIF and biotinylated anti-MIF antibodies). Data represents the average of at least 3 biological replicates, and error bars represent a standard deviation. After 24 hours, up to 95.3% of the MIF had been depleted from cell culture media (in the case of MIF-AcF3-3).

[2] = test system: PC3 human prostate cancer cells; test: Mouse model of prostate cancer, tumor growth; assay type: in vivo; settings: nude mice engrafted with PC3 cells, treatment initiated immediately
Text: In this experiment, nude mice were engrafted with PC3 human prostate cancer cells. Treatment was then initiated immediately with either a non-bifunctional MIF inhibitor (3w), an anti-MIF antibody, or MIF-GN3.

rhuMIF [3] = target: T1, rhuMIF; test: Trafficking of MIF internalized by HepG2 cells to lysosomes, immunofluorescence; assay type: cell-based; set-up: purchased Cayman Chemical; settings: 100 nM rhuMIF, 200 nM compound, 12 hours
Experimental: In this experiment, cells were incubated with rhuMIF (Cayman) at a concentration of 100 nM with 200 nM MIF-GN3.

rhuMIF [4] = target: T1, rhuMIF; test: Depletion of injected human MIF from mice, serum sandwich ELISA; assay type: in vivo; settings: nude mice injected with 5 μg recombinant human MIF
Experimental: Human MIF has a half-life of approximately 40 minutes in mice. In this experiment, human recombinant MIF (Cayman chemical) was co-injected into mice with an anti-DNP IgG, which was used as an injection positive control. In particular, nude mice were injected with 5 μg recombinant human MIF and 200 μg anti-DNP IgG as an injection control (FIG. 4). MIF-GN3 was then injected at the concentration shown and blood drawn every twenty minutes over the course of two hours. Serum was diluted 1:100 and analyzed for MIF content by sandwich ELISA (biolegend monoclonal anti-MIF and biotinylated anti-MIF antibodies).

| Compound | MIF depleted from cell culture media (rhuMIF [1]) [%] | tumor growth [2] | trafficking of internalized MIF to lysosomes (rhuMIF [3]) | serum huMIF levels (rhuMIF [4]; blood drawn over two hours, PBS control up to 150 ng/ml) | decrease in huMIF levels (rhuMIF [4]; versus PBS) |
| --- | --- | --- | --- | --- | --- |
| O=C(CCOCC(COCCC(=O)NCCOCCOCCOCCOC[C@@]12CO[C@@H](O1)[C@H](NC(=O)C(F)(F)F)[C@@H](O)[C@H]2O)(COCCC(=O)NCCOCCOCCOCCOC[C@@]12CO[C@@H](O1)[C@H](NC(=O)C(F)(F)F)[C@@H](O)[C@H]2O)NC(=O)CCCOc1ccc2nc(-c3cn(-c4ccc(O)c(F)c4)nn3)ccc2c1)NCCOCCOCCOCCOC[C@@]12CO[C@@H](O1)[C@H](NC(=O)C(F)(F)F)[C@@H](O)[C@H]2O [MIF-AcF3-3] | 95.3 |  |  |  |  |
| CC(=O)N[C@H]1[C@H](OCCOCCOCCNC(=O)CCOCC(COCCC(=O)NCCOCCOCCO[C@@H]2O[C@H](CO)[C@H](O)[C@H](O)[C@H]2NC(C)=O)(COCCC(=O)NCCOCCOCCO[C@@H]2O[C@H](CO)[C@H](O)[C@H](O)[C@H]2NC(C)=O)NC(=O)CNC(=O)CCCOc2ccc3nc(-c4cn(-c5ccc(O)c(F)c5)nn4)ccc3c2)O[C@H](CO)[C@H](O)[C@@H]1O [MIF-GN3] |  | showed a slowing of tumor growth | evidencing internalization in lysosomes | up to 20 ng/ml | substantial decrease in huMIF levels |
